# Results from PMC12655252, “Synthesis of 1H-Pyrrolo[3,2-g]isoquinoline Derivatives as Ligands Targeting Haspin Kinase” (Molecules, 2025).
# What was measured:
# CDK5/p25 = molecular target: T1, CDK5/p25 (Homo sapiens, UniProt Q00535); experiment: ADP-Glo in vitro kinase inhibition assay, CDK5/p25; format: biochemical; details: 10 μM ATP, read-out: CDK5 % residual activity; for remaining activity at 1 µM: 1 μM compound; for remaining activity at 10 µM: 10 μM compound
# T1 construct: made in house; host or cells: bacteria
# Experimental: (§1) We previouly reported that substitution at the 3-position with halogen atoms or pyridinyl or formyl groups was compatible with high potency toward Haspin kinase. To check if the current structural changes were in line with potent Haspin inhibition and high selectivity, enabling consideration of these compounds as possible targeting ligands for the PROTAC approach, compounds 2, 3, 8–11, and 15–17 were evaluated toward a panel of eight protein kinases, including Haspin, as well as other kinases known to be frequently cross-inhibited (CLK1, DYRK1A, CDK9/Cyclin T, GSK-3β, CK1ε, CDK5/p25, and Pim1) (Table 1). The percentage of residual kinase activity was evaluated at 10 μM and 1 μM compound concentrations. […].
# (§2) Kinase inhibition was tested in 384-well plates using the ADP-GloTM assay kit (Promega, Madison, WI, USA) according to the procedure recommended by the manufacturer. Reactions were set up in a final volume of 6 μL in an appropriate kinase buffer (10 mM MgCl2, 1 mM EGTA, 1 mM DTT, 25 mM Tris-HCl pH 7.5, 50 μg/mL heparin) with either protein or peptide as the substrate in the presence of 10 μM ATP. To stop the kinase reaction, 6 μL of ADP-GloTM Kinase Reagent was added after 30 min at 30 °C. Then, after 50 min of incubation at room temperature (RT), 12 μL of Kinase Detection Reagent was added. The transmitted signal was measured after 1 h at RT using the Envision (Perkin Elmer, Waltham, MA, USA) microplate luminometer and expressed in relative light units (RLU). In order to determine the half-maximal inhibitory concentration (IC50), all assays were performed in duplicate in the absence or presence of increasing doses of the tested compounds. GraphPad Prism10 software (GraphPad Software, San Diego, CA, USA) was used to fit dose–response curves and to determine the IC50 values. Kinase activities are given as percentages of maximal activity, i.e., measured in the absence of inhibitor. Peptide substrates were obtained from Proteogenix (Schiltigheim, France).
# (§3) The following protein kinases were analyzed in this study: CDK5/p25 (human, vector pGEX-2T, expressed in bacteria; kindly provided by Dr. J. H. Wang) was assayed with 0.8 μg/μL of histone H1 as substrate; HsCDK9/CyclinT (NP_001252/KAI4065659, cloned in pTEFb vector, expressed by baculovirus in Sf9 insect cells) were assayed with 0.27 μg/μL of the following peptide: […], as substrate; HsCK1ε (NP_001885, cloned in pFAST-BAC vector, expressed in Sf9 insect cells) was assayed with 0.022 μg/μL of the following peptide: […]pAYSITA (“Sp” stands for phosphorylated serine) as CK1-specific substrate; HsGSK3β (AAH12760, cloned in pFAST-BAC, expressed by baculovirus in Sf9 insect cells) were assayed with 0.010 μg/μL of GS-1 peptide, a GSK-3-selective substrate ([…]pEDEEE); HsHaspin-kd (NP_114171, kinase domain, amino acids 470–798 cloned in pGEX-6P-3, expressed in bacteria) was assayed with 0.007 μg/μL of histone H3 (1–21) peptide ([…]) as substrate; Pim-1 (KAI4018123, expressed in bacteria) was assayed with 0.8 μg/μL of histone H1 as substrate; HsCLK1 (NP_004062, cloned in pFAST-BAC, expressed in Sf9 insect cells) was assayed with 0.027 μg/μL of the peptide: […]; RnDYRK1A-kd (Rattus norvegicus, amino acids 1–499, pGEX-2TK, expressed in bacteria, gift from Dr. W. Becker, Aachen, Germany) was tested in the presence of 0.033 μg/μL of the peptide: […].
# HsCK1ε = molecular target: T2, HsCK1ε (Homo sapiens, UniProt P49674); experiment: ADP-Glo in vitro kinase inhibition assay, CK1ε; format: biochemical; details: 10 μM ATP, read-out: CK1 % residual activity; for remaining activity at 1 µM: 1 μM compound; for remaining activity at 10 µM: 10 μM compound
# T2 construct: made in house; host or cells: Sf9 insect cells
# Experimental: as §1, §2, §3
# [1] = tested on: endogenous Haspin kinase (phosphorylation of Histone H3 on Thr3) in U2OS cells; experiment: H3T3ph immunofluorescence assay in U2OS cells (cellular endogenous Haspin activity); format: cell-based; details: 2.5 μM compound, 16 h, early mitotic cells; for inhibition at 2.5 µM: Homo sapiens, read-out: Inhibition of endogenous Haspin activity (H3T3 phosphorylation) compared to DMSO control
# Experimental: In order to assess the ability of our most interesting compounds to inhibit cellular endogenous Haspin kinase, we evaluated their effects on the phosphorylation of Histone H3 on Thr3, a bona fide Haspin substrate (Figure 4). We treated osteosarcoma U2OS cells with 2.5 μM of selected compounds for 16 h before quantifying H3T3 phosphorylation by immunofluorescence on early mitotic cells (Figure 4A,B). […] This discrepency could be explained by the inability of this compound to cross the plasma membrane or by reduced stability in a cellular environment.
# Ethical approval for this study was obtained (9 July 2025) from DGRI-LabOGM (APPROVAL NUMBER: L1-2373). U2OS cells (purchased from ATCC, Manassas, VA, USA, reference HTB-96) were grown in DMEM medium (Dulbecco’s Modified Eagle Medium, High glucose; GlutaMAX, Life Technologies, Carlsbad, CA, USA) supplemented with 10% fetal bovine serum (Gibco, Grand Island, NY, USA) in a 5% CO2 humidified atmosphere. Cells grown on coverslips were treated for 16 h with each compound or 0.025% DMSO, then fixed with 4% paraformaldehyde in PBS, permeabilized by 0.15% Triton-X100 for 2 min, and blocked for 12 min in 4% BSA in PBS. Immunofluorescence assay was performed using standard protocols with a rabbit anti-phospho-Thr3 Histone H3 and a mouse anti-a-Tubulin (B-5-1-2) obtained from Merck Millipore, Burlington, MA, USA (1/2000 dilution). Coverslips were mounted with Vectashield containing DAPI (Vector Laboratories, Newark, CA, USA). Images were acquired with a Coolsnap HQ2 CCD camera (Photometrics, Tucson, AZ, USA) on a Zeiss Axio microscope (Carl Zeiss, Oberkochen, Germany) using a 63x NA 1.46 objective. Image acquisition and processing were performed using Zen Blue (Carl Zeiss). The H3T3ph signal on chromosomes was normalized against the DAPI signal and analyzed using ImageJ software (NIH, Version 1.54p). Graphs were produced and statistical analysis was performed using GraphPad Prism 10. p-values were determined by t-test; n.s., not significant; **** p ≤ 0.0001.
# Figure 4 Evaluation of selected compounds on cellular endogenous Haspin activity. (A) U2OS cells were treated with 2.5 μM of each compound or 1 μM of CHR6494 (CHR) or DMSO for 16 h. Immunofluorescence assay was performed with anti-pH3T3 antibody (green) and anti-a-Tubulin (red); DNA was labelled with DAPI (blue). Representative images of early mitotic cells for each condition are presented. Scale bar: 5 μm. (B) Scatter plot representing H3T3ph/DAPI signal ratio indicative of Haspin activity; n > 17 mitotic cells per condition. n.s., not significant; **** p ≤ 0.0001.
# T1 sequence (Q00535 whole entry): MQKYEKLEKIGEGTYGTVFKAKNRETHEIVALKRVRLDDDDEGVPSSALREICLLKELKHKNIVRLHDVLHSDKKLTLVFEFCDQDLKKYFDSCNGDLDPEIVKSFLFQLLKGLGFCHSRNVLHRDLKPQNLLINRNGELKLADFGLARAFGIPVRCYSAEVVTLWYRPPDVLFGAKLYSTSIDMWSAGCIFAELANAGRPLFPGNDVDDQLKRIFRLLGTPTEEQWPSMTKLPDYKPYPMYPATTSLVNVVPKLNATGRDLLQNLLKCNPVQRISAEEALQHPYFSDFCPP
# T1 sequence (Q15078 99-307 partner limits assumed): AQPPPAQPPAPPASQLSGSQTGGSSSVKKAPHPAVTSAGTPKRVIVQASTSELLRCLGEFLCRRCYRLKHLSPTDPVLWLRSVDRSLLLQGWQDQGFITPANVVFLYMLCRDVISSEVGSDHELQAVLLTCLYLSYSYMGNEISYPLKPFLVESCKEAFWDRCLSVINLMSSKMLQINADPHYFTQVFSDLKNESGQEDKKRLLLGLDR
# T2 sequence (P49674 whole entry): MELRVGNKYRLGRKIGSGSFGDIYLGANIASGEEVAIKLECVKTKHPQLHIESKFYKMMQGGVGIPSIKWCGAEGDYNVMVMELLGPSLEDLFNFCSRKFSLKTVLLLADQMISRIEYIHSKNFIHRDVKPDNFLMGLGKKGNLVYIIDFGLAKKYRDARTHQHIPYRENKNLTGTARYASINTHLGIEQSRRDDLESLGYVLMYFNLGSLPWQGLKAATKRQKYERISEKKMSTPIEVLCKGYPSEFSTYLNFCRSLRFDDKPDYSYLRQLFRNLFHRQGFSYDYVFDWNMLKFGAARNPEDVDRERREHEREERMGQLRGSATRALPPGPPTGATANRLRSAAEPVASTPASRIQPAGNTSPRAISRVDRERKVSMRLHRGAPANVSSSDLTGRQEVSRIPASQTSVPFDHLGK
remaining activity at 1 µM (CDK5/p25) [%],remaining activity at 10 µM (CDK5/p25) [%],remaining activity at 1 µM (HsCK1ε) [%],remaining activity at 10 µM (HsCK1ε) [%],Compound,inhibition at 2.5 µM [1] [%],Inhibition of endogenous Haspin activity (H3T3 phosphorylation) compared to DMSO control [1]
100,100,78,63,"Nc1ccc(-c2c[nH]c3cc4cnccc4cc23)cn1 [Compound 3, 5-(1H-Pyrrolo[3,2-g]isoquinolin-3-yl)pyridin-2-amine]",~43,–
72,100,90,77,"COC(=O)/C=C/c1c[nH]c2cc3cnccc3cc12 [Compound 8, Methyl (E)-3-(1H-Pyrrolo[3,2-g]isoquinolin-3-yl)prop-2-enoate]",–,did not show any significant inhibitory potential
98,76,100,48,"c1cc2cc3c(-c4cc[nH]n4)c[nH]c3cc2cn1 [Compound 15, 3-(1H-Pyrazol-3-yl)-1H-pyrrolo[3,2-g]isoquinoline]",66,–
91,10,77,12,"c1cc2cc3c(-c4cn[nH]c4)c[nH]c3cc2cn1 [Compound 16, 3-(1H-Pyrazol-4-yl)-1H-pyrrolo[3,2-g]isoquinoline]",77,–
75,81,92,81,"c1c[nH]c(-c2c[nH]c3cc4cnccc4cc23)c1 [Compound 17, 3-(1H-Pyrrol-2-yl)-1H-pyrrolo[3,2-g]isoquinoline]",~43,–
